Measurements published in patent US6608082B1, “Treatment of erectile dysfunction using isoquinoline compound melanocortin receptor ligands” (Lion Bioscience AG, priority 1998, dated 2003).
Read-outs that look alike come from different tables or passages of the source.

Columns and labels:
[1] = target: T1, MCR-4 (Homo sapiens, UniProt P32245); assay: Melanocortin receptor binding assay, competition with 125I-HP 467, HEK 293 cells expressing hMCR-4; conditions: for IC50: read-out: MC-4 IC50
T1 construct: expressed in transfected cells; host or cells: HEK 293
T1 sequence (P32245 whole entry): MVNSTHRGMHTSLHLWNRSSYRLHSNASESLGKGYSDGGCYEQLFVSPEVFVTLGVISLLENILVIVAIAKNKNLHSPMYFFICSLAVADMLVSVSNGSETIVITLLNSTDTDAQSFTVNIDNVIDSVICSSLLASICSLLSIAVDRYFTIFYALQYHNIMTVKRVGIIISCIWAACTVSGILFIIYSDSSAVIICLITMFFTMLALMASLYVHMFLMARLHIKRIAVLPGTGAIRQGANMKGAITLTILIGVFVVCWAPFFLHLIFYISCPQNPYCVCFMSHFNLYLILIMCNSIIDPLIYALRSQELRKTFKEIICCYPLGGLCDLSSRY
Protocol: All cell culture media and reagents were obtained from GibcoBRL (Gaithersburg Md.), except for COSMIC CALF SERUM (HyClone; Logan Utah).
Cells were suspended in PBS, 10% COSMIC CALF SERUM and 1 mM CaCl2. Cell suspensions were prepared at a density of 2×10^4 cells/ml for HEK 293 cells expressing hMCR-3, hMCR-4 or hMCR-5, and 1×10^5 cells/ml for HEK 293 cells expressing hMCR-1. Suspensions were placed in a water bath and allowed to warm to 37° C. for 1 hr.
Binding assays were performed in a total volume of 250 μl for HEK 293 cells. […] To each tube was added 4×10^3 HEK 293 cells expressing hMCR-3, hMCR-4 or hMCR-5, or 2×10^4 cells expressing hMCR-1. Assays were incubated for 2.5 hr at 37° C.
GF/B filter plates were prepared by soaking for at least one hour in 5 mg/ml BSA and 10 mM CaCl2. Assays were filtered using a Brandel 96-well cell harvester (Brandel Inc.; Gaithersburg, Md.). The filters were washed four times with cold 50 mM Tris, pH 7.4, the filter plates were dehydrated for 2 hr and 35 μl of MICROSCINT was added to each well. Filter plates were counted using a Packard Topcount (Packard Instrument Co.) and data analyzed using GraphPad PRISM v2.0 (GraphPad Software Inc.; San Diego Calif.) and Microsoft EXCEL v5.0a (Microsoft Corp.; Redmond Wash.).
To assay isoquinoline compounds, binding assays were performed in duplicate in a 96 well format. […] A 0.2 ml aliquot of suspended cells was added to each well to give the cell numbers indicate above, and the cells were incubated at 37° C. for 2.5 hr. Cells were harvested on GF/B filter plates as described above and counted.

[2] = target: T2, MCR-1 (Homo sapiens, UniProt Q01726); assay: Melanocortin receptor binding assay, competition with 125I-HP 467, HEK 293 cells expressing hMCR-1; conditions: for IC50: read-out: MC-1 IC50; for % Disp. MC-1 10 μM: displacement of 125I-HP 467 at 10 μM isoquinoline compound
T2 construct: expressed in transfected cells; host or cells: HEK 293
T2 sequence (Q01726 whole entry): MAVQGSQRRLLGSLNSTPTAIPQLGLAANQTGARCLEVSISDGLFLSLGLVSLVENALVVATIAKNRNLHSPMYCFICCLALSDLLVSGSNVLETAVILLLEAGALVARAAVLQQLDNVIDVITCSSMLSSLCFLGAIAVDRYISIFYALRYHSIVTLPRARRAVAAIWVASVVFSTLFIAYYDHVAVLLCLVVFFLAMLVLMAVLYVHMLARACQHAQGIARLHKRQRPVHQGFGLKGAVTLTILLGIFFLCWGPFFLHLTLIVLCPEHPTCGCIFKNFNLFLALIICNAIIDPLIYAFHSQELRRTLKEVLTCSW
Outline: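 Test compounds compete on intact HEK 293 cells carrying hMCR-1 (2×10^4 per tube) or hMCR-4 (4×10^3 per tube), suspended in PBS, 10% calf serum, 1 mM CaCl2.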

[3] = TRG 2406 and TRG 2407 libraries, inhibition of binding of 125I-HP 467
[4] = inhibition of binding of 125I-HP 467, HEK 293 cells expressing MCR-4, TRG 2414 library
[5] = inhibition of binding of 125I-HP 467, HEK 293 cells expressing MCR-1

`CCCOc1ccc(C2C(CNCc3ccccc3)c3ccccc3CN2CCCCC(CN)NCC(C)c2ccc(CC(C)C)cc2)cc1` (mixture of isomers) [Cmpd 192] was tested, and the IC50 ([1]; TRG 2414 library, inhibition of binding of 125I-HP 467, HEK 293 cells expressing MCR-4) was 16 µM and the IC50 ([2]; TRG 2414 library, inhibition of binding of 125I-HP 467, HEK 293 cells expressing MCR-1) was 11.4 µM.

In the case of `CNC(CN)CN1Cc2ccccc2C(CNC2CCCCC2)C1c1cccn1C` (mixture of isomers) [TRG 2405-94], the IC50 ([1]; TRG 2405 section, inhibition of binding of 125I-HP 467, HEK 293 cells expressing MCR-4) is reported as 10.5 µM, the IC50 ([2]; TRG 2405 section, inhibition of binding of 125I-HP 467, HEK 293 cells expressing MCR-1) is reported as 2.11 µM and the “% Disp. MC-1 10 μM” value ([2]; first of duplicate) is reported as 68.9%. The “% Disp. MC-1 10 μM” value ([2]; second of duplicate) was 72%.

`CNC(CN)CCCCN1Cc2ccccc2C(CNCc2ccccc2O)C1c1cccc(Oc2ccc(Cl)c(Cl)c2)c1` (mixture of isomers) [TRG 2406-4] showed an IC50 [1, 3] of 3.78 µM and an IC50 [2, 3] of 1.72 µM.

In the case of `NCCN1Cc2ccccc2C(CNCc2ccccc2O)C1c1ccc(Oc2ccccc2)cc1` (mixture of isomers) [TRG 2406-11], the IC50 [1, 3] is reported as 7 µM and the IC50 [2, 3] is reported as 10.5 µM.

Work on `CNC(CN)CCCCN1Cc2ccccc2C(CNc2ccccc2)C1c1ccc(Cl)cc1Cl` (mixture of isomers) [TRG 2407-1] yielded an IC50 [1, 3] of 10.7 µM and an IC50 [2, 3] of 5.57 µM.

`CNC(CN)CCCCN1Cc2ccccc2C(CNCc2ccccc2OC)C1c1ccc(Cl)cc1Cl` (mixture of isomers) [TRG 2407-14] gave an IC50 [1, 3] of 0.41 µM and an IC50 [2, 3] of 0.37 µM.

Molecule `CNC(CN)CCCCN1Cc2ccccc2C(CNCCc2ccccc2Cl)C1c1ccc(Cl)cc1Cl` (mixture of isomers) [TRG 2407-22] has an IC50 [1, 3] of 0.69 µM and an IC50 [2, 3] of 1.34 µM.

For `CNC(CN)CCCCN1Cc2ccccc2C(CNCCc2ccccc2OC)C1c1ccc(Cl)cc1Cl` (mixture of isomers) [TRG 2407-23], the IC50 [1, 3] was 0.69 µM and the IC50 [2, 3] was 0.94 µM.

In the case of `CNC(CN)CCCCN1Cc2ccccc2C(CNCCc2cccc(Cl)c2)C1c1ccc(Cl)cc1Cl` (mixture of isomers) [TRG 2407-24], the IC50 [1, 3] is reported as 0.8 µM and the IC50 [2, 3] is reported as 1.79 µM.

`CNC(CN)CCCCN1Cc2ccccc2C(CNCC2CCCCC2)C1c1ccc(Cl)cc1Cl` (mixture of isomers) [TRG 2407-31] was tested, and the IC50 [1, 3] was 1.02 µM and the IC50 [2, 3] was 1.11 µM.

Molecule `CNC(CN)CCCCN1Cc2ccccc2C(CNN2CCCCC2)C1c1ccc(Cl)cc1Cl` (mixture of isomers) [TRG 2407-34] has an IC50 [1, 3] of 2.01 µM and an IC50 [2, 3] of 3.97 µM.

`NCC(CCCCN1Cc2ccccc2C(CNCc2ccccc2C(F)(F)F)C1c1ccc(Cl)cc1Cl)NCc1ccccc1` (mixture of isomers) [TRG 2414-3] showed an IC50 [1, 4] of 65.5 µM.

In the case of `NCC(CCCN1Cc2ccccc2C(CNCCc2ccccc2)C1c1ccc([N+](=O)[O-])cc1)NCCc1ccccc1` (stereo not shown) [TRG 2413-13], the IC50 [2, 5] is reported as 1.07 µM.

Work on `NCC(CCCN1Cc2ccccc2C(CNC2CCCCC2)C1c1ccc([N+](=O)[O-])cc1)NCCc1ccccc1` (stereo not shown) [TRG 2413-14] yielded an IC50 [2, 5] of 1.57 µM.

`NCC(CCCN1Cc2ccccc2C(CN)C1c1ccc([N+](=O)[O-])cc1)NCCc1ccccc1` (stereo not shown) [TRG 2413-15] was tested, and the IC50 [2, 5] was 1.92 µM.

With `NCC(N)CCCCN1Cc2ccccc2C(CNCc2ccccc2C(F)(F)F)C1c1ccc(Cl)cc1Cl` (stereo not shown) [TRG 2414-1] the IC50 [1, 4] was 7.59 µM.

`NCC(CCCCN1Cc2ccccc2C(CNCc2ccccc2C(F)(F)F)C1c1ccc(Cl)cc1Cl)NCCc1ccccc1` (stereo not shown) [TRG 2414-2] was tested, and the IC50 [1, 4] was 29.3 µM.

In the case of `CC(C)Cc1ccc(C(C)CNC(CN)CCCCN2Cc3ccccc3C(CNCc3ccccc3C(F)(F)F)C2c2ccc(Cl)cc2Cl)cc1` (stereo not shown) [TRG 2414-4], the “MC-4 IC50” value [1, 4] is reported as “no fit”.

`CCOc1ccccc1CNCC1c2ccccc2CN(CCCCC(N)CN)C1c1ccc(Cl)cc1Cl` (stereo not shown) [TRG 2414-5] showed an IC50 [1, 4] of 0.48 µM.

Molecule `CCOc1ccccc1CNCC1c2ccccc2CN(CCCCC(CN)NCCc2ccccc2)C1c1ccc(Cl)cc1Cl` (stereo not shown) [TRG 2414-6] has an IC50 [1, 4] of 5.54 µM.

`CCOc1ccccc1CNCC1c2ccccc2CN(CCCCC(CN)NCc2ccccc2)C1c1ccc(Cl)cc1Cl` (stereo not shown) [TRG 2414-7] was tested, and the IC50 [1, 4] was 4.56 µM.

`CCOc1ccccc1CNCC1c2ccccc2CN(CCCCC(CN)NCC(C)c2ccc(CC(C)C)cc2)C1c1ccc(Cl)cc1Cl` (stereo not shown) [TRG 2414-8] was tested, and the IC50 [1, 4] was 13.8 µM.

`NCC(CCCCN1Cc2ccccc2C(CNCCc2ccc(Oc3ccccc3)cc2)C1c1cc(C(F)(F)F)cc(C(F)(F)F)c1)NCc1ccc(Br)cc1` (stereo not shown) [TRG 2421-28] was tested, and the IC50 [2, 5] was 15.7 µM.

For `NCC(CCCCN1Cc2ccccc2C(CNCCc2ccc(Oc3ccccc3)cc2)C1c1cc(C(F)(F)F)cc(C(F)(F)F)c1)NCc1ccc(-c2ccccc2)cc1` (stereo not shown) [TRG 2421-30], the IC50 [2, 5] was 36.4 µM.
